“And” between values parts separate entries of the source, which are not always exact repeats. Equal values may be shown once.
Experiments:
SuperStart = assay: Susceptibility of fermenting yeast to sodium percarbonate in diluted molasses (Example 1, second part); assay type: cell-based; settings: for yeast level after treatment: two hours, molasses
Experimental: (§1) In a second part of this Example 1, the yeasts strains Ethanol Red, FermPro S, and SuperStart (commonly used as fermenting yeasts in the ethanol industry) were cultured overnight in Yeast Peptone Dextrose broth (YPD, Difco Laboratories Inc., Sparks, Md.). Individual strains were then suspended in dilute molasses as above to give approximately 1×10^6 CFU/ml and treated with various concentration of percarbonate for two hours as described above.

Ethanol Red = assay: as above; assay type: cell-based; settings: for yeast level after treatment: two hours, molasses
Experimental: as §1

FermPro S = assay: as above; assay type: cell-based; settings: for yeast level after treatment: two hours, molasses
Experimental: as §1

[1] = Stability of peroxygen-releasing compounds during storage at 40° C., iodometric titration of hydrogen peroxide (Example 4); assay type: physicochemical
Experimental: A dry oven was used to store samples of the peroxygen-releasing compounds at 40° C. The oven was allowed to equilibrate overnight. Two-gram duplicate samples of each of the following peroxygen-releasing compounds were dispensed into aluminum weighing dishes: sodium percarbonate (Alfa Aesar, Ward Hill, Mass.), sodium percarbonate FB 400 (Solvay Chemicals, Inc., Houston, Tex.), sodium percarbonate FB […] (Solvay Chemicals, Inc.), calcium peroxide (Sigma-Aldrich Co., St. […] After six days, samples were analyzed for levels of hydrogen peroxide using standard iodometric titration.

[2] = tested on: lactic acid bacteria (LAB); assay: Inactivation of LAB in dilute molasses at pH 5.0 in the presence of yeast Ethanol Red (Example 5); assay type: cell-based; settings: for Log CFU/mL of LAB at hour indicated: 32° C.
Experimental: Cultures of lactic acid bacteria (LAB) were prepared as in Example 1 above. Molasses was diluted 1:3.1 with water as in previous examples. The fermenting yeast Ethanol Red was cultured as in example 1. Populations of lactic acid bacteria and yeasts were determined by dilution plating on MRS agar and YPD agar, respectively. Overnight cultures of LAB were mixed to prepare a bacterial cocktail and inoculated into molasses (diluted 1:3.1 with water) adjusted to pH 5.0 to give approximately 6.11 Log CFU/ml. Cultures of yeasts were added to each tube at a concentration of approximately 6.80 Log CFU/ml. […] The amount of UHP added was 1450 ppm. The amount of percarbonate added was 1812 ppm. Tubes were then incubated at 32° C. with agitation. […] Amphotericin inhibits the growth of yeast, facilitating enumeration of bacteria only.

[3] = tested on: lactic acid bacteria (LAB); assay: Inactivation of LAB in molasses at pH 4.2 and 5.4 (Examples 2 and 3); assay type: cell-based; settings: for reduction in the amount of LAB: 2 hours; for reduction in the levels of LAB: 2-hour
Experimental: Molasses (B&G Foods, Inc., Roseland, N.J.) was diluted 1 to 3.1 with water and sterilized as in Example 1. The prepared molasses was then divided into two lots and pH-adjusted using sulfuric acid to approximately pH 4.2 and 5.4, respectively. Cultures of LAB were prepared as in Example 1 and inoculated into the molasses to give approximately 1×10^6 CFU/ml. Sodium percarbonate (Alfa Aesar, Ward Hill, Mass.) was added to give 250, 500, and 750 ppm. […] Levels of LAB were enumerated by dilution and plating onto the surface of MRS agar followed by incubation at 32° C. LAB were enumerated at approximately 2 and 24 hours after the addition of sodium percarbonate.
Molasses was prepared as above and adjusted to pH 4.2 and 5.4 using sulfuric acid. Cultures of lactic acid bacteria were prepared as indicated in Example 1 and inoculated into the molasses to give approximately 10E6 CFU/ml. Levels of bacteria were confirmed by plating serial dilutions of the inoculated molasses onto the surface of MRS agar plates as in Example 1. Calcium peroxide was added at the levels indicated. Bacterial levels were enumerated at 2 and 24 hours following addition as described above.

[4] = 1.0×10^6 CFU/ml, 500 ppm percarbonate

**Q.** With `O=C([O-])[O-].O=C([O-])[O-].OO.OO.OO.[Na+].[Na+].[Na+].[Na+]` [Sodium percarbonate, sodium percarbonate] as the compound, how does the “reduction in the concentration of yeast” value (SuperStart; [4]) read?
**A.** The value was “approximately 1 log”.

**Q.** What about the “yeast level after treatment” value (SuperStart; 100 ppm percarbonate) of the same compound?
**A.** The value was 1.22 × 10^6 CFU/ml.

**Q.** What about the “yeast level after treatment” value (SuperStart; 250 ppm percarbonate) of the same compound?
**A.** Its value is 3.80 × 10^5 CFU/ml.

**Q.** What about the “yeast level after treatment” value (SuperStart; 500 ppm percarbonate) of the same compound?
**A.** The value was 1.07 × 10^5 CFU/ml.

**Q.** What about the “yeast level after treatment” value (SuperStart; 1000 ppm percarbonate) of the same compound?
**A.** The value was 6.00 × 10^3 CFU/ml.

**Q.** And the reduction of yeast (Ethanol Red; [4])?
**A.** The reduction of yeast was less than 1 log.

**Q.** What about the “yeast level after treatment” value (Ethanol Red; 100 ppm percarbonate) of the same compound?
**A.** Its value is 7.90 × 10^6 CFU/ml.

**Q.** And the “yeast level after treatment” value (Ethanol Red; 250 ppm percarbonate)?
**A.** The value was 5.00 × 10^6 CFU/ml.

**Q.** What about the “yeast level after treatment” value (Ethanol Red; 500 ppm percarbonate) of the same compound?
**A.** Its value is 1.99 × 10^6 CFU/ml.

**Q.** And the reduction of yeast (Ethanol Red; 1000 ppm percarbonate)?
**A.** The reduction of yeast was “approximately 1 log”.

**Q.** What about the “yeast level after treatment” value (Ethanol Red; 1000 ppm percarbonate) of the same compound?
**A.** Its value is 4.90 × 10^5 CFU/ml.

**Q.** And the reduction of yeast (FermPro S; [4])?
**A.** Its reduction of yeast is less than 1 log.

**Q.** What about the “yeast level after treatment” value (FermPro S; 100 ppm percarbonate) of the same compound?
**A.** Its value is 7.30 × 10^6 CFU/ml.

**Q.** And the “yeast level after treatment” value (FermPro S; 250 ppm percarbonate)?
**A.** The value was 3.00 × 10^6 CFU/ml.

**Q.** And the “yeast level after treatment” value (FermPro S; 500 ppm percarbonate)?
**A.** The value was 1.43 × 10^6 CFU/ml.

**Q.** And the reduction of yeast (FermPro S; 1000 ppm percarbonate)?
**A.** Its reduction of yeast is “approximately 1 log”.

**Q.** And the “yeast level after treatment” value (FermPro S; 1000 ppm percarbonate)?
**A.** Its value is 2.90 × 10^5 CFU/ml.

**Q.** And the “% Remaining H2O2 Day 0” value [1]?
**A.** The value was 100%.

**Q.** And the “% Remaining H2O2 Day 6” value [1]?
**A.** Its value is 99%.

**Q.** What about the “% Remaining H2O2 Day 14” value [1] of the same compound?
**A.** The value was 99%.

**Q.** What about the “% H2O2 Day 0” value ([1]; before storage, duplicate samples, listed as Sodium percarbonate (Alfa Aesar)) of the same compound?
**A.** Its value is 27.48% and 27.38%.

**Q.** And the “% H2O2 Day 6” value ([1]; storage at 40° C. in dry oven, day 6, duplicate samples, listed as Sodium percarbonate (Alfa Aesar))?
**A.** Its value is 27.12% and 27.05%.

**Q.** And the “% H2O2 Day 14” value ([1]; storage at 40° C. in dry oven, day 14, duplicate samples, listed as Sodium percarbonate (Alfa Aesar))?
**A.** The value was 27.11% and 26.99%.

**Q.** And the “reduction of the population of LAB” value ([2]; 500 ppm as H2O2, 2 hours of incubation at 32° C., in presence of yeast)?
**A.** Its value is roughly 5 log units.

**Q.** And the “Log CFU/mL of LAB at hour indicated” value ([2]; 500 ppm as H2O2, hour 2, molasses pH 5.0, yeast approx. 6.80 Log CFU/ml)?
**A.** Its value is 1.95 Log CFU/mL.

**Q.** What about the “Log CFU/mL of LAB at hour indicated” value ([2]; 500 ppm as H2O2, hour 6, molasses pH 5.0, yeast approx. 6.80 Log CFU/ml, listed as percarbonate) of the same compound?
**A.** Its value is less than 1 Log CFU/mL.

**Q.** And the “Log CFU/mL of LAB at hour indicated” value ([2]; 500 ppm as H2O2, hour 6, molasses pH 5.0, yeast approx. 6.80 Log CFU/ml, listed as sodium percarbonate)?
**A.** Its value is “below the detectable limit”.

**Q.** And the “CFU/ml LAB at hour indicated” value ([3]; molasses at pH 4.2, 250 ppm (69 ppm as H2O2), hour 2)?
**A.** The value was 7.85 × 10^5 CFU/ml.

**Q.** What about the “CFU/ml LAB at hour indicated” value ([3]; molasses at pH 4.2, 250 ppm (69 ppm as H2O2), hour 24) of the same compound?
**A.** Its value is 8.75 × 10^4 CFU/ml.

**Q.** And the “CFU/ml LAB at hour indicated” value ([3]; molasses at pH 4.2, 500 ppm (138 ppm as H2O2), hour 2)?
**A.** The value was 8.40 × 10^5 CFU/ml.

**Q.** What about the “CFU/ml LAB at hour indicated” value ([3]; molasses at pH 4.2, 500 ppm (138 ppm as H2O2), hour 24) of the same compound?
**A.** The value was 7.90 × 10^6 CFU/ml.

**Q.** What about the “CFU/ml LAB at hour indicated” value ([3]; molasses at pH 4.2, 750 ppm (207 ppm as H2O2), hour 2) of the same compound?
**A.** The value was 3.10 × 10^5 CFU/ml.

**Q.** And the “CFU/ml LAB at hour indicated” value ([3]; molasses at pH 4.2, 750 ppm (207 ppm as H2O2), hour 24)?
**A.** Its value is 1.50 × 10^3 CFU/ml.

**Q.** What about the “CFU/ml LAB at hour indicated” value ([3]; molasses at pH 5.4, 250 ppm (69 ppm as H2O2), hour 2) of the same compound?
**A.** Its value is 3.95 × 10^5 CFU/ml.

**Q.** And the “CFU/ml LAB at hour indicated” value ([3]; molasses at pH 5.4, 250 ppm (69 ppm as H2O2), hour 24)?
**A.** The value was 7.50 × 10^1 CFU/ml.

**Q.** And the “CFU/ml LAB at hour indicated” value ([3]; molasses at pH 5.4, 500 ppm (138 ppm as H2O2), hour 2)?
**A.** Its value is 3.85 × 10^4 CFU/ml.

**Q.** And the “CFU/ml LAB at hour indicated” value ([3]; molasses at pH 5.4, 500 ppm (138 ppm as H2O2), hour 24)?
**A.** The value was 1.50 × 10^1 CFU/ml.

**Q.** And the “CFU/ml LAB at hour indicated” value ([3]; molasses at pH 5.4, 750 ppm (207 ppm as H2O2), hour 2)?
**A.** The value was 2.80 × 10^4 CFU/ml.

**Q.** What about the “CFU/ml LAB at hour indicated” value ([3]; molasses at pH 5.4, 750 ppm (207 ppm as H2O2), hour 24) of the same compound?
**A.** The value was less than 10 CFU/ml.

**Q.** And the “CFU/ml LAB at hour indicated” value ([3]; molasses at pH 5.4, 750 ppm (207 ppm as H2O2), hour 24, listed as sodium percarbonate)?
**A.** The value was “below the detection limit”.

**Q.** What about the “reduction in the amount of LAB” value ([3]; molasses pH 4.2, 250 ppm sodium percarbonate) of the same compound?
**A.** Its value is “approximately 1 log”.

**Q.** What about the “reduction in the amount of LAB” value ([3]; molasses pH 4.2, 500 ppm sodium percarbonate) of the same compound?
**A.** The value was “approximately 1 log”.

**Q.** And the “reduction in the amount of LAB” value ([3]; molasses pH 4.2, 750 ppm sodium percarbonate)?
**A.** Its value is “approximately 1 log”.

**Q.** What about the “reduction in the number of LAB” value ([3]; molasses pH 4.2, 750 ppm sodium percarbonate, 24 hour) of the same compound?
**A.** Its value is “more than 3 log units”.

**Q.** And the “reduction in the level of LAB” value ([3]; molasses pH 5.4, 250 ppm sodium percarbonate, 24-hour)?
**A.** The value was roughly 6 log.

**Q.** What about the “reduction in the levels of LAB” value ([3]; molasses pH 5.4, 500 ppm sodium percarbonate) of the same compound?
**A.** Its value is “approximately 2 log”.

**Q.** What about the “reduction in the levels of LAB” value ([3]; molasses pH 5.4, 750 ppm sodium percarbonate) of the same compound?
**A.** The value was “approximately 2 log”.

Reference: patent US8759051B2, “Control of contaminant microorganisms in fermentation processes with peroxygen-releasing compounds” (E I du Pont de Nemours and Company, priority 2010, dated 2014)
